Each structure is given as a SMILES string.

The target of one assay is T1, Recombinant human GSK3β (Homo sapiens, UniProt P49841).
T1 construct: His-tag; made in house; host or cells: Sf9 insect cells / baculovirus
T1 sequence (P49841 whole entry): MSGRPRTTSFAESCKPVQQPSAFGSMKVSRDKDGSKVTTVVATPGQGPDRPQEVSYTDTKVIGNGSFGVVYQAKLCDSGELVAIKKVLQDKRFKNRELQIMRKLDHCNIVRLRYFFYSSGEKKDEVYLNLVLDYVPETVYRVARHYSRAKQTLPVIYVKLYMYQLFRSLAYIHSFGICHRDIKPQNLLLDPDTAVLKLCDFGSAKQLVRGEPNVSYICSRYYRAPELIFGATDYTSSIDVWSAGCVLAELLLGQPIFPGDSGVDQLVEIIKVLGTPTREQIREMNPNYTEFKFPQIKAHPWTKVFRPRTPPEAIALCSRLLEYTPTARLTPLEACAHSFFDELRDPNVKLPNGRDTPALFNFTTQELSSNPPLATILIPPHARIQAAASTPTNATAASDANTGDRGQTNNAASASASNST
Description: GSK-3β (Glycogen Synthase Kinase) cell free enzyme assay. In kind it is biochemical. Conditions: 1 μM; Examples 157-199; read-out: Percent inhibition at 1 μM. The gist of the method: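 This cell-free kinase assay measured [33P] transfer from [33P]ATP gamma phosphate into the biotinylated peptide bio-LC-S-R-H-S-S-P-H-Q-pS-E-D-E-E-E-OH. After 60 min at RT, reactions were stopped with 0.66 volume of PBS lacking Ca or Mg containing 12.5 mM EDTA, 0.25% Triton-X 100, 125 uM ATP and 6.2 mg/ml streptavidin SPA beads. Bead-bound radioactivity was counted as CPM on a Trilux scintillation counter.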
Usually inhibition stands for the relative decrease from the control value, in per cent. In the case of `Cn1c(N[C@@H]2CN(S(=O)(=O)c3ccccc3)C[C@@H]2F)nc(-c2ccncc2)cc1=O` [Example 184, 2-{[(3R,4S)-4-Fluoro-1-(phenylsulfonyl)pyrrolidin-3-yl]amino}-3-methyl-6-pyridin-4-ylpyrimidin-4(3H)-one], the inhibition at 1 µM was 100%. On to `CCN(c1nc(-c2ccncc2)cc(=O)n1C)C1CCCN(S(=O)(=O)c2ccccc2)C1` (centres unmarked) [Example 185, 2-{Ethyl[1-(phenylsulfonyl)piperidin-3-yl]amino}-3-methyl-6-pyridin-4-ylpyrimidin-4(3H)-one], for which the inhibition at 1 µM was 101%. For `CCN(c1nc(-c2ccncc2)cc(=O)n1C)C1CCCN(S(=O)(=O)c2ccccc2)CC1` (centres unmarked) [Example 186, 2-{Ethyl[1-(phenylsulfonyl)azepan-4-yl]amino}-3-methyl-6-pyridin-4-ylpyrimidin-4(3H)-one], the inhibition at 1 µM was found to be 101%. On to `CCN(c1nc(-c2ccncc2)cc(=O)n1C)C1CCN(S(=O)(=O)c2ccccc2)CC1` [Example 187, 2-{Ethyl[1-(phenylsulfonyl)piperidin-4-yl]amino}-3-methyl-6-pyridin-4-ylpyrimidin-4(3H)-one], for which the inhibition at 1 µM worked out at 102%.

As to `Cn1c(NC[C@H]2CCCN2S(=O)(=O)c2ccccc2)nc(-c2ccncc2)cc1=O` [Example 188, 3-Methyl-2-({[(2R)-1-(phenylsulfonyl)pyrrolidin-2-yl]methyl}amino)-6-pyridin-4-ylpyrimidin-4(3H)-one], the inhibition at 1 µM was determined as 94%.

Take `CCN(C[C@H]1CCCN1S(=O)(=O)c1ccccc1)c1nc(-c2ccncc2)cc(=O)n1C` [Example 189, 2-(Ethyl{[(2R)-1-(phenylsulfonyl)pyrrolidin-2-yl]methyl}amino)-3-methyl-6-pyridin-4-ylpyrimidin-4(3H)-one]: the inhibition at 1 µM came to 95%. Turning to `Cn1c(NCC2CN(S(=O)(=O)c3ccccc3)C2)nc(-c2ccncc2)cc1=O` [Example 190, 3-Methyl-2-({[1-(phenylsulfonyl)azetidin-3-yl]methyl}amino)-6-pyridin-4-ylpyrimidin-4(3H)-one], the inhibition at 1 µM amounted to 35%. Consider `Cn1c(NCC2CCN(S(=O)(=O)c3ccccc3)C2)nc(-c2ccncc2)cc1=O` (centres unmarked) [Example 191, 3-Methyl-2-({[1-(phenylsulfonyl)pyrrolidin-3-yl]methyl}amino)-6-pyridin-4-ylpyrimidin-4(3H)-one], for which the inhibition at 1 µM came to 76%. In the case of `Cn1c(NC2CCCN(S(=O)(=O)Cc3ccccc3)CC2)nc(-c2ccncc2)cc1=O` (centres unmarked) [Example 192, 2-{[1-(Benzylsulfonyl)azepan-4-yl]amino}-3-methyl-6-pyridin-4-ylpyrimidin-4(3H)-one], the inhibition at 1 µM stood at 81%. For `Cn1c(N2CC[C@@H]3CN(S(=O)(=O)Cc4ccccc4)C[C@@H]32)nc(-c2ccncc2)cc1=O` [Example 193, 2-[(3a,R6,aR)-5-(Benzylsulfonyl)hexahydro-pyrrolo[34-b]pyrrol-1(2H)-yl]-3-methyl-6-pyridin-4-ylpyrimidin-4(3H)-one], the inhibition at 1 µM was found to be 80%. Consider `CN(c1nc(-c2ccncc2)cc(=O)n1C)C1CCN(S(=O)(=O)Cc2ccccc2)C1` (centres unmarked) [Example 194, 2-{[1-(Benzylsulfonyl)pyrrolidin-3-yl](methyl)amino}-3-methyl-6-pyridin-4-ylpyrimidin-4(3H)-one], for which the inhibition at 1 µM is 90%. The same measure, in the same setting: as for `CN(c1nc(-c2ccncc2)cc(=O)n1C)[C@@H]1CC[C@H]2N(S(=O)(=O)Cc3ccccc3)CCC2(C)C1` (stereo partly drawn) [Example 195, 2-{[(3,aS5,R7,aR)-1-(Benzylsulfonyl)-3a-methyloctahydro-1H-indol-5-yl](methyl)amino}-3-methyl-6-pyridin-4-ylpyrimidin-4(3H)-one], the figure is 92%; as for `CN(c1nc(-c2ccncc2)cc(=O)n1C)C1CCCN(S(=O)(=O)Cc2ccccc2)CC1` (centres unmarked) [Example 196, 2-{[1-(Benzylsulfonyl)azepan-4-yl](methyl)amino}-3-methyl-6-pyridin-4-ylpyrimidin-4(3H)-one], 94%; as for `CCN(c1nc(-c2ccncc2)cc(=O)n1C)C1CCCN(S(=O)(=O)Cc2ccccc2)CC1` (centres unmarked) [Example 197, 2-{[1-(Benzylsulfonyl)azepan-4-yl](ethyl)amino}-3-methyl-6-pyridin-4-ylpyrimidin-4(3H)-one], 93%.

For the compound `CCN(c1nc(-c2ccncc2)cc(=O)n1C)C1CCN(S(=O)(=O)Cc2ccccc2)C1` (centres unmarked) [Example 198, 2-{[1-(Benzylsulfonyl)pyrrolidin-3-yl](ethyl)amino}-3-methyl-6-pyridin-4-ylpyrimidin-4(3H)-one], the inhibition at 1 µM amounted to 97%.

`CCN(c1nc(-c2ccncc2)cc(=O)n1C)C1CCN(S(=O)(=O)Cc2ccccc2)CC1` [Example 199, 2-{[1-(Benzylsulfonyl)piperidin-4-yl](ethyl)amino}-3-methyl-6-pyridin-4-ylpyrimidin-4(3H)-one]: the inhibition at 1 µM turned out to be 89%.

The assay is the same for the next values; noted with them: 1 μM; Examples 201-221.
In the case of `COC(=O)N1CCCC(N(C)c2nc(-c3ccncc3)cc(=O)n2C)CC1` (centres unmarked) [Example 214, Methyl 4-[methyl(1-methyl-6-oxo-4-pyridin-4-yl-16-dihydropyrimidin-2-yl)amino]azepane-1-carboxylate], the “Percent inhibition at 1 μM” value came out at 99%.

The assay is the same for the next values; noted with them: 1 μM; Examples 201-221; read-out: Percent inhibition at 1 μM.
Take `COC(=O)N1C[C@H]2CCN(c3nc(-c4ccncc4)cc(=O)n3C)[C@H]2C1` [Example 203, Methyl (3a,R6,aR)-1-(1-methyl-6-oxo-4-pyridin-4-yl-16-dihydropyrimidin-2-yl)hexahydropyrrolo[34-b]pyrrole-5(1H)-carboxylate]: the inhibition at 1 µM was 32%.

As for `COC(=O)N1CCC(Nc2nc(-c3ccncc3)cc(=O)n2C)C1` (centres unmarked) [Example 204, Methyl 3-[(1-methyl-6-oxo-4-pyridin-4-yl-16-dihydropyrimidin-2-yl)amino]pyrrolidine-1-carboxylate], the inhibition at 1 µM worked out at 82%.

For the compound `COC(=O)N1CCCC(Nc2nc(-c3ccncc3)cc(=O)n2C)CC1` (centres unmarked) [Example 205, Methyl 4-[(1-methyl-6-oxo-4-pyridin-4-yl-16-dihydropyrimidin-2-yl)amino]azepane-1-carboxylate], the inhibition at 1 µM worked out at 86%. For `COC(=O)N1CCCCC(Nc2nc(-c3ccncc3)cc(=O)n2C)C1` (centres unmarked) [Example 206, Methyl 3-[(1-methyl-6-oxo-4-pyridin-4-yl-16-dihydropyrimidin-2-yl)amino]azepane-1-carboxylate], the inhibition at 1 µM came to 94%.

As to `COC(=O)N1C[C@H](Nc2nc(-c3ccncc3)cc(=O)n2C)[C@@H](F)C1` [Example 207, Methyl (3S,4S)-3-fluoro-4-[(1-methyl-6-oxo-4-pyridin-4-yl-l6-dihydropyrimidin-2-yl)amino]pyrrolidine-1-carboxylate], the inhibition at 1 µM was 74%. The same measure, in the same setting: the same measure for `COC(=O)N1CCC(Nc2nc(-c3ccncc3)cc(=O)n2C)CC1` [Example 208, Methyl 4-[(1-methyl-6-oxo-4-pyridin-4-yl-16-dihydropyrimidin-2-yl)amino]piperidine-1-carboxylate]: 77%; for `COC(=O)N1CC(Nc2nc(-c3ccncc3)cc(=O)n2C)C1` [Example 209, Methyl 3-[(1-methyl-6-oxo-4-pyridin-4-yl-16-dihydropyrimidin-2-yl)amino]azetidine-1-carboxylate]: 80%. Take `COC(=O)N1CCCC(Nc2nc(-c3ccncc3)cc(=O)n2C)C1` (centres unmarked) [Example 210, Methyl 3-[(1-methyl-6-oxo-4-pyridin-4-yl-16-dihydropyrimidin-2-yl)amino]piperidine-1-carboxylate]: the inhibition at 1 µM stood at 99%. Still for that read-out and setting: the same measure for `COC(=O)N1C[C@H](F)[C@H](Nc2nc(-c3ccncc3)cc(=O)n2C)C1` [Example 211, Methyl (3S,4R)-3-fluoro-4-[(1-methyl-6-oxo-4-pyridin-4-yl-16-dihydropyrimidin-2-yl)amino]pyrrolidine-1-carboxylate]: 67%. With `COC(=O)N1CCC(N(C)c2nc(-c3ccncc3)cc(=O)n2C)C1` (centres unmarked) [Example 213, Methyl 3-[methyl(1-methyl-6-oxo-4-pyridin-4-yl-16-dihydropyrimidin-2-yl)amino]pyrrolidine-1-carboxylate], the inhibition at 1 µM came to 95%. On to `CCN(c1nc(-c2ccncc2)cc(=O)n1C)C1CCCN(C(=O)OC)CC1` (centres unmarked) [Example 215, Methyl 4-[ethyl(1-methyl-6-oxo-4-pyridin-4-yl-16-dihydropyrimidin-2-yl)amino]azepane-1-carboxylate], for which the inhibition at 1 µM worked out at 93%. As for `COC(=O)N1CC[C@@]2(C)C[C@H](N(C)c3nc(-c4ccncc4)cc(=O)n3C)CC[C@@H]12` [Example 216, Methyl (3a,S5,R7,aR)-3a-methyl-5-[methyl(1-methyl-6-oxo-4-pyridin-4-yl-16-dihydropyrimidin-2-yl)amino]octahydro-1H-indole-1-carboxylate], the inhibition at 1 µM stood at 88%. For the compound `CCN(c1nc(-c2ccncc2)cc(=O)n1C)C1CCN(C(=O)OC)CC1` [Example 217, Methyl 4-[ethyl(1-methyl-6-oxo-4-pyridin-4-yl-16-dihydropyrimidin-2-yl)amino]piperidine-1-carboxylate], the inhibition at 1 µM stood at 84%. Regarding `COC(=O)N1CCC[C@H]1CNc1nc(-c2ccncc2)cc(=O)n1C` [Example 218, Methyl (2S)-2-{[(1-methyl-6-oxo-4-pyridin-4-yl-16-dihydropyrimidin-2-yl)amino]methyl}pyrrolidine-1-carboxylate], the inhibition at 1 µM is 68%. Still for that read-out and setting: as for `COC(=O)N1CC(CNc2nc(-c3ccncc3)cc(=O)n2C)C1` [Example 219, Methyl 3-{[(1-methyl-6-oxo-4-pyridin-4-yl-16-dihydropyrimidin-2-yl)amino]methyl}azetidine-1-carboxylate], the figure is 72%.
